# Reference: PubChem BioAssay (NCI)
# Where “and” joins values, the source holds several entries; their conditions need not be identical. Identical values can stand only once.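 Where inhibition never reached the appropriate level, the endpoint shown equals the highest concentration tested. Otherwise, values were interpolated linearly from a five-concentration, 48-hour dose response in 96-well plates. GI50 marks 50% less growth. Definition used: TGI = concentration required for complete inhibition of growth.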
# Legend:
# Assay in all cases: NCI tumour cell line growth inhibition, 48 h
# DU-145 prostate = test system: DU-145 prostate
# UACC-257 melanoma = test system: UACC-257 melanoma
# HOP-92 NSCLC = test system: HOP-92 NSCLC
# SNB-19 CNS = test system: SNB-19 CNS
# SF-268 CNS = test system: SF-268 CNS
# HT29 colon = test system: HT29 colon
# U251 CNS = test system: U251 CNS
# ACHN renal = test system: ACHN renal
# MDA-MB-231 breast = test system: MDA-MB-231 breast
# T-47D breast = test system: T-47D breast
SMILES,GI50 (DU-145 prostate),TGI (DU-145 prostate),GI50 (UACC-257 melanoma),TGI (UACC-257 melanoma),GI50 (HOP-92 NSCLC),TGI (HOP-92 NSCLC),GI50 (SNB-19 CNS),TGI (SNB-19 CNS),GI50 (SF-268 CNS),TGI (SF-268 CNS),GI50 (HT29 colon),TGI (HT29 colon),GI50 (U251 CNS),TGI (U251 CNS),GI50 (ACHN renal),TGI (ACHN renal),GI50 (MDA-MB-231 breast),TGI (MDA-MB-231 breast),GI50 (T-47D breast),TGI (T-47D breast)
O=Cc1ccc(-c2ccc(-c3nc4ccccc4o3)cc2)s1,26.3 µM,> 100 µM,49.3 µM,> 100 µM,> 100 µM,> 100 µM,49.2 µM,> 100 µM,28.4 µM,81.5 µM,53.8 µM,> 100 µM,29.1 µM,80.8 µM,31.5 µM,> 100 µM,21.9 µM,55.2 µM,22.6 µM,> 100 µM
Cc1nc([C@H]2CC[C@H]3[C@@H]4CCC5=CC(=O)CC[C@]5(C)[C@H]4CC[C@]23C)cs1,> 100 µM,> 100 µM,3.31 µM,> 100 µM,> 28.9 µM,> 100 µM,> 100 µM,> 100 µM,> 27.2 µM,> 100 µM,5.15 µM,> 100 µM,5.27 µM,> 100 µM,7.72 µM,> 100 µM,> 26.7 µM,> 100 µM,1.83 µM,> 100 µM
COc1ccc(/C=C2\CC(C)CC3C2=NN(C(C)=O)C3c2ccc(OC)cc2)cc1 (stereo unspecified),25.7 µM,78.1 µM,19.8 µM,45 µM,17.2 µM,44.2 µM,27.6 µM,> 100 µM,20.8 µM,53.2 µM,9.08 µM,40.2 µM,14.4 µM,31 µM,17.2 µM,39.3 µM,16.4 µM,35.7 µM,25.7 µM,> 100 µM
Cc1nccc2c3ccc(OCc4cn(-c5ccc(Cl)cc5)nn4)cc3n(CCCc3ccccc3)c12,4.33 µM,> 33.3 µM,4.58 µM,13.4 µM,4.98 µM,21.3 µM,> 33.3 µM,> 33.3 µM,4.66 µM,17.5 µM,3.07 µM,> 33.3 µM,8.82 µM,> 33.3 µM,1.57 µM,8.5 µM,6.83 µM,> 33.3 µM,20.6 µM,> 33.3 µM
CCN1C2=NCCN2S(=O)(=O)c2ccccc21,–,> 100 µM,–,> 100 µM,–,> 100 µM,–,> 100 µM,–,> 100 µM,–,> 100 µM,–,> 100 µM,–,> 100 µM,–,> 100 µM,–,> 100 µM
CS(=O)(=O)CCNCc1ccc(-c2ccc3ncnc(Nc4ccc(OCc5cccc(F)c5)c(C(F)(F)F)c4)c3c2)o1,3.91 µM,8.07 µM,3.86 µM,7.68 µM,0.847 µM,6.34 µM,4.81 µM,11.4 µM,3.74 µM,7.78 µM,4.54 µM,8.92 µM,3.98 µM,8.48 µM,4.14 µM,8.67 µM,3.78 µM,9.83 µM,3.4 µM,7.74 µM
N#CSc1c[nH]c2ccc(/C=C/C(=O)/C=C(/C=C/c3ccc4[nH]cc(SC#N)c4c3)OB(F)F)cc12,0.694 µM,2.55 µM,2.82 µM,33.6 µM,0.321 µM,1.5 µM,3.32 µM,14.7 µM,1.12 µM,2.8 µM,0.394 µM,2.38 µM,1.04 µM,2.99 µM,0.208 µM,0.471 µM,0.917 µM,2.34 µM,0.791 µM,8.6 µM
Fc1ccc(-c2ncn(C3CCNCC3)c2-c2ccnc(Oc3ccc(F)c(F)c3)n2)cc1,8.78 µM,> 16.7 µM,4.76 µM,9.15 µM,3.28 µM,15.6 µM,12.2 µM,> 25 µM,12 µM,> 25 µM,4.36 µM,8.12 µM,5 µM,11.7 µM,9.9 µM,> 25 µM,5.59 µM,12 µM,4.7 µM,10.2 µM
COc1cc2c3c(n(CCCNCCCNCCCNCCCN)c(=O)c2cc1OC)-c1cc2c(cc1C3=O)OCO2,1.42 µM,4.19 µM,3.72 µM,17.2 µM,2.74 µM,9.64 µM,2.23 µM,15.4 µM,1.7 µM,4.33 µM,2.28 µM,16.4 µM,1.33 µM,3.81 µM,3.1 µM,12 µM,2.43 µM,7.79 µM,2.36 µM,> 100 µM
CC(=O)N1c2ccccc2NC2=C(C(=O)N(Cc3ccccc3)C2(C)C)C1c1ccco1 (stereo unspecified),0.115 µM,> 25 µM,> 25 µM,> 25 µM,1.02 µM,> 25 µM,0.524 µM,> 25 µM,1.28 µM,> 25 µM,0.755 µM,> 25 µM,0.665 µM,> 25 µM,1.35 µM,> 25 µM,0.364 µM,> 11.3 µM,4.88 µM,> 25 µM
Cc1nc(CN2CCCCC2)c(O)c(=O)[nH]1,–,> 100 µM,–,> 100 µM,–,> 100 µM,–,> 100 µM,–,> 100 µM,–,> 100 µM,–,> 100 µM,–,> 100 µM,–,> 100 µM,–,> 100 µM
O=[N+]([O-])/C=C/c1cc2ccccc2[nH]1,–,28.8 µM,–,29.6 µM,–,43.5 µM,–,34.7 µM,–,36.4 µM,–,35.5 µM,–,25.8 µM,–,31.1 µM,–,36.9 µM,–,33.9 µM
CS(=O)(=O)Nc1cccc(-c2cc(-c3ccccc3Cl)c(C#N)c(N)n2)c1,1.17 µM,13 µM,0.5 µM,21.4 µM,1.11 µM,16 µM,0.859 µM,19.6 µM,1.05 µM,19.1 µM,0.389 µM,11.9 µM,0.531 µM,15.4 µM,0.679 µM,17.6 µM,0.712 µM,15.5 µM,0.695 µM,14.6 µM
COC1=CC23CCCN2CCc2cc4c(cc2C3C1O)OCO4 (stereo unspecified),–,> 100 µM,–,> 100 µM,–,> 100 µM,–,67.8 µM,–,> 100 µM,–,> 100 µM,–,> 100 µM,–,60.1 µM,–,> 100 µM,–,> 100 µM
CCn1cc(-c2ccnc3[nH]ccc23)c(-c2cccc(NC(=O)Nc3ccc(OCc4ccccc4)cc3)c2)n1,> 25 µM,> 25 µM,> 24.1 µM,> 25 µM,> 25 µM,> 25 µM,> 23.9 µM,> 25 µM,> 19.7 µM,> 25 µM,4.18 µM,> 20.3 µM,4.75 µM,> 25 µM,15.2 µM,> 25 µM,6.57 µM,> 25 µM,6.65 µM,> 25 µM
CN1C(=O)[C@@H](NC(=O)[C@H](CCC(F)(F)F)[C@H](CCC(F)(F)F)C(N)=O)N=C(c2ccccc2)c2ccccc21,> 100 µM,> 100 µM,67.7 µM,> 100 µM,59.1 µM,> 100 µM,> 100 µM,> 100 µM,> 100 µM,> 100 µM,> 100 µM,> 100 µM,> 100 µM,> 100 µM,45 µM,> 100 µM,43.7 µM,> 100 µM,46.2 µM,> 100 µM
S=C(Nc1ccc(Cl)cc1)Nc1ccc(-c2nc3ccccc3o2)cc1,17 µM,38.6 µM,21.4 µM,45.4 µM,17.2 µM,50.4 µM,25.6 µM,> 100 µM,16.5 µM,76.7 µM,17.4 µM,41.8 µM,14.1 µM,29.7 µM,17.3 µM,35.8 µM,10.3 µM,35.1 µM,16.8 µM,82.8 µM
Nc1ncnc2c1c(-c1cccc(OCc3ccccc3)c1)cn2C1CC(CN2CCC2)C1 (stereo unspecified),4.61 µM and 7.63 µM,17.7 µM and > 10 µM,0.559 µM and 1.13 µM,2.1 µM and 2.41 µM,0.0457 µM and 0.266 µM,0.837 µM and 3.82 µM,6.37 µM and 7.05 µM,20.5 µM and > 10 µM,2.24 µM and 3.68 µM,6.54 µM and > 10 µM,0.0575 µM and 0.173 µM,1.84 µM and 2.05 µM,1.82 µM and 3 µM,3.94 µM and > 10 µM,3.87 µM and 7.43 µM,15.3 µM and > 10 µM,2.12 µM and 3.82 µM,6.14 µM and > 10 µM,2.84 µM and 2.79 µM,12.1 µM and > 10 µM
O=c1c(O)cccc2cc(O)c(O)c(O)c12,18.8 µM,> 100 µM,5.84 µM,> 100 µM,19.8 µM,> 100 µM,8.44 µM,> 100 µM,5.34 µM,> 100 µM,33.2 µM,> 100 µM,6.03 µM,> 100 µM,7.82 µM,> 100 µM,7.5 µM,> 100 µM,> 100 µM,> 100 µM
COC(=O)c1c(O)c([N+](=O)[O-])cc2c1c1c(n2Cc2ccccc2)C(=O)c2ccccc2C1=O,14.3 µM,27.6 µM,41 µM,> 100 µM,8.08 µM,63 µM,17.1 µM,65.3 µM,8.48 µM,76.9 µM,18.9 µM,> 100 µM,31 µM,> 100 µM,29.8 µM,> 100 µM,19.9 µM,> 100 µM,11.8 µM,45.8 µM
COc1ccc(-c2nc(C(=O)c3ccccc3)n(CC(=O)c3ccccc3)c2-c2ccc(OC)cc2)cc1,> 100 µM,> 100 µM,> 100 µM,> 100 µM,12.4 µM,> 100 µM,> 100 µM,> 100 µM,> 100 µM,> 100 µM,> 100 µM,> 100 µM,> 100 µM,> 100 µM,> 100 µM,> 100 µM,> 100 µM,> 100 µM,> 100 µM,> 100 µM
O=C(O)c1cc2ccccc2oc1=O,–,> 100 µM,–,> 100 µM,–,> 100 µM,–,> 100 µM,–,> 100 µM,–,> 100 µM,–,> 100 µM,–,> 100 µM,–,> 100 µM,> 100 µM and 33.6 µM,> 100 µM
CCCCCCCCCc1cc[n+](CC(=O)c2ccc([N+](=O)[O-])cc2)cc1,0.729 µM,2.04 µM,1.47 µM,3.2 µM,0.234 µM,1.03 µM,0.478 µM,1.8 µM,1.34 µM,2.81 µM,0.313 µM,1.29 µM,0.457 µM,1.76 µM,1.42 µM,2.82 µM,0.447 µM,1.7 µM,1.63 µM,3.64 µM
O=C(/C=C/C=C/c1c(C2CC2)nc2ccccc2c1-c1ccc(F)cc1)c1cccs1,2.46 µM,> 100 µM,1.97 µM,6.22 µM,1.83 µM,8.6 µM,4.05 µM,> 100 µM,3.35 µM,> 100 µM,1.49 µM,5.47 µM,1.9 µM,5.4 µM,1.34 µM,3.86 µM,2.58 µM,> 100 µM,0.718 µM,65.6 µM
CCN(CC)c1ccc2c(c1)Oc1nc(N)c(C#N)c(N)c1C2Sc1ccc(OC)cc1 (stereo unspecified),1.82 µM,3.25 µM,1.98 µM,3.48 µM,1.86 µM,3.37 µM,1.8 µM,3.26 µM,1.85 µM,3.58 µM,2.1 µM,4.27 µM,1.42 µM,2.81 µM,1.59 µM,2.94 µM,1.6 µM,3.13 µM,1.91 µM,4.89 µM
O=C(O)c1cc2ccccc2c(N=Nc2cc(C(F)(F)F)ccc2Cl)c1O,–,> 100 µM,–,> 100 µM,–,> 100 µM,–,21.5 µM,–,> 100 µM,–,> 100 µM,–,> 100 µM,–,> 100 µM,–,86.7 µM,–,> 100 µM
